Values joined by “and” are separate entries in the source; they are usually repeats but may differ in a detail not shown here. Equal values may be shown once.
Tests used:
[1] = Emission and photophysical properties; assay type: physicochemical; details: H2O:DMSO (99:1), 25 °C, nitrogen atmosphere; for λem: λex 405 nm (Ir) or 450 nm (Ru)
Method: The emission spectra of the metal complexes in deoxygenated solutions of H2O:DMSO (99:1, v:v, 10^–5 M) were recorded at 25 °C, using λex of 405 nm for Ir-Me/Ir-H and λex of 450 nm for Ru-Me/Ru-H (Figure 3). […] Moreover, Ir-Me/Ru-Me featured lower emission intensities compared to Ir-H/Ru-H, respectively.
The excited state lifetimes (τ) and the photoluminescence quantum yields were also determined for the new metal complexes (Table 2). […] These values compare well with those of similar complexes and are compatible with a triplet nature for the emissive states. The photoluminescence quantum yields (ΦPL) of Ir(III)/Ru(II) were very low with values ranging from 1.1 to 4.13%.
All synthetic manipulations for Ir(III) and Ru(II) complexes were carried out under an atmosphere of dry, oxygen-free nitrogen using standard Schlenk techniques. The solvents were dried and distilled under a nitrogen atmosphere before use. Elemental analyses were performed with a Thermo Fisher Scientific EA Flash 2000 Elemental Microanalyzer. UV–vis absorption was measured in a Jasco V-750 UV–visible spectrophotometer. Fluorescence steady-state and lifetime measurements were performed in an FLS980 (Edinburgh Instruments) fluorimeter with Xenon Arc Lamp 450 W and TCSPC laser, respectively. Photoluminescence quantum yields was determined by using FLS980 (Edinburgh Instruments) with Xenon Arc Lamp 450 W and Red PMT Sphere as a detector. HR-ESI(+) mass spectra were recorded with an Agilent LC-MS system (1260 Infinity LC/6545 Q-TOF MS spectrometer) using dichloromethane (DCM) as a sample solvent and H2O (0.1% formic acid)/MeOH (0.1% formic acid) and 30:70 as the mobile phase. The experimental m/z values are expressed in Da and were compared with the m/z values for monoisotopic fragments. […] Chemical shift values (δ) are reported in ppm and coupling constants (J) in hertz. The splitting of proton resonances in the reported ^1H NMR data is defined as s = singlet, d = doublet, t = triplet, q = quartet, m = multiplet, and bs = broad singlet. 2D NMR spectra were recorded using standard pulse sequences. All NMR data processing was carried out using MestReNova version 10.0.2. […]
an integrating sphere. For the determination of the luminescence lifetime, the fluorescence decay was measured on a FLS980 spectrofluorometer equipped with a TSCPC laser (Ir(III) complexes: λ ex = 405 nm; Ru(II) complexes: λ ex = 450 nm) and a REDPMT detector. The F980 spectrometer operating software was used to collect and process luminescence lifetime data. […]
Photocatalytic oxidation of NADH. […]
A decrease in the absorption band with maxima at 338 nm was considered to confirm the photocatalytic oxidation of NADH into NAD+. […]
Both phases were then separated. Next, approximately 0.1 mg of the corresponding photosensitizer was dissolved in 1 mL of PBS-saturated n-octanol. Subsequently, 1 mL of octanol-saturated PBS was added, and the mixture was stirred vigorously at room temperature for 24 h. The two layers were separated carefully, and the absorbance of each layer was determined at the respective local maximum located around 425 nm. The log P oct/PBS values were determined as follows: […]

[2] = n-octanol/PBS partition coefficient, shake flask; assay type: physicochemical; details: UV/vis
Method: First, the n-octanol/PBS partition coefficient values, log Poct/PBS, of the metal PSs were experimentally determined to quantify their lipophilicity (Figure S56). Indeed, the shake flask method was employed, and the metal content was measured in both phases by UV/vis spectroscopy. […]
an integrating sphere. For the determination of the luminescence lifetime, the fluorescence decay was measured on a FLS980 spectrofluorometer equipped with a TSCPC laser (Ir(III) complexes: λ ex = 405 nm; Ru(II) complexes: λ ex = 450 nm) and a REDPMT detector. The F980 spectrometer operating software was used to collect and process luminescence lifetime data.
Photostability of Ir(III) and Ru(II) complexes. The photostability of Ir(III) or Ru(II) complexes was monitored by 1H RMN. The 1.5 × 10−2 M solutions of the complexes in DMSO-d6:D2O (3:2) at 25 °C were irradiated with blue LED light (λ irr = 460 nm, 24 W) for different intervals of time. […]
Singlet oxygen generation. The capacity of Ir-Me and Ru-Me to generate singlet oxygen ( 1O2) was determined by an indirect method using 9,10-anthracenediyl-bis(methylene) dimalonic acid (ABDA) as a probe. The reaction between ABDA and 1O2 was monitored by UV-Vis and the gradual decrease of the maximum at 379 nm was used to quantify the ability of our complexes to generate 1O2. Aerated solutions of ABDA (8 × 10^-5 M) and the corresponding PS in H2O:DMSO (50:50) were irradiated with a blue LED strip (λ ir = 460 nm; 24 W) at room temperature for intervals of 5 minutes (0 min → 100 min) and UV-Vis spectra were recorded after every irradiation interval. Concentrations of PS were tuned to achieve similar values of absorbance at 460 nm (A460 nm ≈ 0.06). The singlet oxygen quantum yield (φ) was determined using Rose Bengal (RB) as standard reference (φ Δ = 0.75)6 and the following equation:7 […]
where kPS and kRB represent the decomposition rate constants of the photobleaching of ABDA determined by the slope calculated from the linear fit of ln(A 0/A) vs time. […]
Determination of Lipophilicity. […] The log P oct/PBS values were determined as follows: […]

Question: For `Cn1c2ccccc2c2ccnc(-c3ccc(/C=C/C(=O)O)cn3)c21.[Cl-].[Ir+3].[c-]1ccccc1-c1ccccn1.[c-]1ccccc1-c1ccccn1` [Ir-H], which ΦPL [1] is on record?
Answer: 4.13%

Question: What about the “τ [contribution (%)], first or only component” value [1] of the same compound?
Answer: 23 ns and 23 [51] ns

Question: And the “τ [contribution (%)], second component” value [1]?
Answer: 145 ns and 145 [49] ns

Question: And the λem [1]?
Answer: 651 nm

Question: And the “log Poct/PBS” value [2]?
Answer: 1.80

Question: Which ΦPL [1] does the source give for `Cn1c2ccccc2c2ccnc(-c3ccc(/C=C/C(=O)O)cn3)c21.[Cl-].[Cl-].[Ru+2].c1ccc(-c2ccccn2)nc1.c1ccc(-c2ccccn2)nc1` [Ru-H] here?
Answer: 3.13%

Question: And the “τ [contribution (%)], first or only component” value [1]?
Answer: 186 ns

Question: And the λem [1]?
Answer: 688 nm

Question: And the “log Poct/PBS” value [2]?
Answer: −1.10

Question: Which results are given for `COC(=O)/C=C/c1ccc(-c2nccc3c4ccccc4n(C)c23)nc1.[Cl-].[Ir+3].[c-]1ccccc1-c1ccccn1.[c-]1ccccc1-c1ccccn1` [Ir-Me]?
Answer: ΦPL [1]: 3.50%; τ [contribution (%)], first or only component [1]: 2 ns and 2 [20] ns; τ [contribution (%)], second component [1]: 93 ns and 93 [80] ns; λem [1]: 676 nm; log Poct/PBS [2]: 2.03

— paper PMC11483813, “Bombesin-Targeted Delivery of β-Carboline-Based Ir(III) and Ru(II) Photosensitizers for a Selective Photodynamic Therapy of Prostate Cancer” (Inorganic Chemistry, 2024)
